Among the test systems are DLD-1 colon; LXFL 529 NSCLC; RXF-631 renal; XF 498 CNS; HS 578T breast; MDA-N.
Holding throughout (test): growth of human tumour cells (NCI), 48 h

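Five concentrations, 48 hours, 96-well plates. TGI: total growth inhibition.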 Bounds are passed on as bounds.

Turning to `COC(=O)CCC(NC(=S)N/N=C/c1ccco1)C(=O)OC` (stereo not given), the TGI in the assay with DLD-1 colon, with LXFL 529 NSCLC, in the assay with RXF-631 renal and in the assay with XF 498 CNS was over 100 µM each time.

As to `COc1c2c(nc3ccccc13)-c1cc3c(c(=O)n1C2)COC(=O)C3(O)CC(=O)N1CCOCC1` (stereo not given), the TGI in the assay on DLD-1 colon is over 100 µM; with HS 578T breast, over 88.8 µM; in the assay on LXFL 529 NSCLC, over 100 µM; in the assay on MDA-N, over 100 µM; with XF 498 CNS, 33.9 µM.

In the case of `Cc1[nH]c2ccccc2c1C1Cc2ccccc2N1C(=O)/C=C/C(=O)O` (stereo not given), the TGI in the assay with DLD-1 colon was over 100 µM; in the assay on LXFL 529 NSCLC, over 100 µM; with RXF-631 renal, 41.3 µM; in the assay on XF 498 CNS, over 100 µM.

Regarding `COc1ccc(C(=O)C(c2ccc(OC)cc2)C2(O)C(=O)Nc3c2ccc(Cl)c3C)cc1` (stereo not given), the TGI in the assay on LXFL 529 NSCLC and in the assay with RXF-631 renal was over 100 µM throughout.

Consider `CCc1cccc(C)c1NC(=O)C(=O)Cc1nc2ccccc2s1`, for which the TGI in the assay with DLD-1 colon, with LXFL 529 NSCLC and in the assay on RXF-631 renal was over 100 µM throughout.

As to `CCOC(=O)NC(=O)c1cn(CCCCCCOC(=O)NCCCCCCNC(=O)OCCCCCCn2cc(C(=O)NC(=O)OCC)c(=O)[nH]c2=O)c(=O)[nH]c1=O`, the TGI in the assay on DLD-1 colon, in the assay with LXFL 529 NSCLC and with RXF-631 renal was over 100 µM each time.

Regarding `CCOC(=O)C(=Cc1cccnc1C)C(=O)OCC`, the TGI in the assay with DLD-1 colon turned out to be 47.4 µM; with LXFL 529 NSCLC it was 20.2 µM; in the assay on RXF-631 renal, 39.7 µM; in the assay with XF 498 CNS, 25.6 µM.

Regarding `Cc1cccc(C(C)C)c1NC(=O)CC1C(=O)Nc2ccccc2S1(=O)=O` (stereo not given), the TGI was over 45.6 µM in the assay on DLD-1 colon, 35.5 µM in the assay on LXFL 529 NSCLC, over 52.6 µM in the assay with RXF-631 renal and over 59.9 µM with XF 498 CNS.

As for `O=c1c2ccccc2nc(-c2ccccc2)n1NC1OC(CO)C(O)C(O)C1O` (stereo not given), the TGI in the assay on DLD-1 colon, in the assay on LXFL 529 NSCLC, in the assay with RXF-631 renal and in the assay on XF 498 CNS was over 100 µM throughout.

`COc1ccc(OC)c2c1C(=O)C1CC1(Br)C2=O` (stereo not given): the TGI in the assay with DLD-1 colon, in the assay with LXFL 529 NSCLC and in the assay with XF 498 CNS was over 100 µM in each case.

Turning to `Cc1ccc(Nc2nc(C)c(C(/C=C/c3ccc(/C=C/C(=N/NC(=O)C[n+]4ccccc4)c4sc(Nc5ccc(C)cc5[N+](=O)[O-])nc4C)cc3)=N\NC(=O)C[n+]3ccccc3)s2)c([N+](=O)[O-])c1`, the TGI in the assay with DLD-1 colon, in the assay on LXFL 529 NSCLC and in the assay with RXF-631 renal was over 100 µM in each case.

With `COC(=O)c1cc(Cl)ccc1NC(=O)c1ccc([N+](=O)[O-])cc1`, the TGI with DLD-1 colon was over 100 µM; in the assay on LXFL 529 NSCLC, over 100 µM; in the assay on RXF-631 renal, 36.5 µM; with XF 498 CNS, 35.9 µM.

`C[C@]12CCC3[C@@H](CC[C@@H]4c5nonc5CC[C@]34C)C1C/C(=N/O)C2=O` (stereo not given in full): the TGI in the assay on LXFL 529 NSCLC was over 100 µM; with RXF-631 renal, over 100 µM; in the assay on XF 498 CNS it was 40.4 µM.

Take `O=CC1CCCc2ccccc21` (stereo not given): the TGI was over 63.8 µM with DLD-1 colon, over 100 µM in the assay with LXFL 529 NSCLC and over 100 µM with XF 498 CNS.

In the case of `Cc1ccc(C)c(NC(=O)CC/C(=N\NC(=O)c2c(O)ccc3ccccc23)C(C)C(=O)c2ccc(O)cc2)c1` (stereo not given), the TGI was over 100 µM with DLD-1 colon, over 100 µM in the assay on LXFL 529 NSCLC and 91.9 µM in the assay with XF 498 CNS.

As to `O=C1CC(S(=O)(=O)O)C=C1Nc1cccc(Cl)c1` (stereo not given), the TGI with DLD-1 colon, with LXFL 529 NSCLC and in the assay on XF 498 CNS was over 100 µM in each case.

Turning to `CC1=C2C(=CC(C)(C)C2O)C(=O)C(C)(O)C12CC2` (stereo not given), the TGI in the assay on DLD-1 colon came out at 0.0447 µM; in the assay with LXFL 529 NSCLC, 0.114 µM; in the assay with XF 498 CNS it was 0.0309 µM.

On to `[N-]=[N+]=NC(CI)c1cn([C@H]2C[C@H](O)[C@@H](CO)O2)c(=O)[nH]c1=O` (stereo not given in full), for which the TGI in the assay on DLD-1 colon, in the assay with LXFL 529 NSCLC and in the assay with XF 498 CNS was over 100 µM in each case.

Turning to `O=CN/C=C/c1ccc(O)c(O)c1`, the TGI with DLD-1 colon, with LXFL 529 NSCLC, in the assay with RXF-631 renal and in the assay with XF 498 CNS was over 100 µM throughout.

In the case of `COC(=O)C1=C(c2cc(OC)c(OC)c(OC)c2)OC(c2ccc(OC)c(OC)c2)C1` (stereo not given), the TGI in the assay on DLD-1 colon, with LXFL 529 NSCLC and in the assay on XF 498 CNS was over 100 µM each time.

Turning to `COc1ccc(C2=NN(c3ccccc3)C[N+](c3ccc(OC)cc3)=N2)cc1`, the TGI in the assay with DLD-1 colon was over 100 µM; with LXFL 529 NSCLC it was 45.4 µM; in the assay with XF 498 CNS it was 39.1 µM.

`CN1c2ccccc2N(C)C23N(C)c4ccccc4N(C)C12N(C)c1ccccc1N3C` (stereo not given): the TGI in the assay on DLD-1 colon, in the assay with RXF-631 renal and with XF 498 CNS was over 100 µM in each case.

On to `Cc1cc(Cl)ccc1NC(=O)CC/C(CC(=O)C(C)C)=N\NC(=O)C[n+]1ccccc1`, for which the TGI in the assay on LXFL 529 NSCLC, in the assay with RXF-631 renal and in the assay with XF 498 CNS was over 100 µM throughout.

With `COc1ccc(/C=C\c2cc(OC)c(OC)c(OC)c2)cc1OC`, the TGI in the assay on DLD-1 colon worked out at 40.4 µM; with HS 578T breast, 68 µM; in the assay with LXFL 529 NSCLC it was 3.14 µM; in the assay with RXF-631 renal, 40.4 µM; with XF 498 CNS it was 0.401 µM.

On to `CN(/N=C/c1cccc2cccnc12)c1ccccc1`, for which the TGI with DLD-1 colon, in the assay on LXFL 529 NSCLC and in the assay on XF 498 CNS was over 100 µM in each case.

The values are drawn from PubChem BioAssay (NCI).
